Measurements reported in the supplement of paper PMC10627819.

What was measured:
Experiment in all cases: Bliss interaction score (quartile over a dose matrix) (fitness difference); higher = more antagonism (negative = synergy)
B. subtilis 168 = tested on: B. subtilis 168
In short: (§1)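 The Bliss score was calculated by subtracting the expected fitness, the product of single-drug values, from the observed fitness. OD595 at entry into stationary phase, over the plate's robust no-drug mean and capped at 1, served as the fitness readout. Single-drug values were inferred from combination data, and scores are summarised by quartiles across technical, biological and donor/recipient replicates.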

S. aureus DSM 20231 = tested on: S. aureus DSM 20231
In short: as §1

S. aureus Newman = tested on: S. aureus Newman
In short: as §1

S. pneumoniae D39V = tested on: S. pneumoniae D39V
In short: as §1
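Further: first quartile when negative (synergy) and third quartile when positive (antagonism).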

| Compound | Bliss interaction score (B. subtilis 168) | Bliss interaction score (S. aureus DSM 20231) | Bliss interaction score (S. aureus Newman) | Bliss interaction score (S. pneumoniae D39V) |
| --- | --- | --- | --- | --- |
| N[C@@H]1CONC1=O [CycloserineD] + CC(=O)O[C@H]1C[C@@]2(C)[C@@H](C[C@@H](O)[C@H]3[C@@]4(C)CC[C@@H](O)[C@@H](C)[C@@H]4CC[C@@]32C)/C1=C(\CCC=C(C)C)C(=O)O [Fusidic acid] | 0.0616 | 0.0576 | -0.0418 | 0.211 |
| CC(=O)O[C@H]1C[C@@]2(C)[C@@H](C[C@@H](O)[C@H]3[C@@]4(C)CC[C@@H](O)[C@@H](C)[C@@H]4CC[C@@]32C)/C1=C(\CCC=C(C)C)C(=O)O [Fusidic acid] + Cc1onc(-c2ccccc2)c1C(=O)N[C@@H]1C(=O)N2[C@@H]1SC(C)(C)[C@@H]2C(=O)O [Oxacillin] | 0.0607 | 0.044 | 0.0784 | 0.152 |
| CC(=O)O[C@H]1C[C@@]2(C)[C@@H](C[C@@H](O)[C@H]3[C@@]4(C)CC[C@@H](O)[C@@H](C)[C@@H]4CC[C@@]32C)/C1=C(\CCC=C(C)C)C(=O)O [Fusidic acid] + CC1=C\[C@@H](O)CC(=O)Cc2nc(co2)C(=O)N2CCC=C2C(=O)O[C@H](C(C)C)[C@H](C)/C=C/C(=O)NC\C=C\1 [Virginiamycin M1] | 0.0743 | 0.0345 | -0.044 | 0.0996 |
| CC(=O)OC[C@H]1O[C@@H]([S-])[C@H](OC(C)=O)[C@@H](OC(C)=O)[C@@H]1OC(C)=O.CCP(CC)CC.[Au+] [Auranofin] + COc1c(N2C[C@@H]3CCCN[C@@H]3C2)c(F)cc2c(=O)c(C(=O)O)cn(C3CC3)c12 [Moxifloxacin] | 0.031 | 0.0832 | 0.105 | -0.051 |
| CCC[C@@H]1C[C@@H](C(=O)N[C@@H]([C@H]2O[C@H](SC)[C@H](O)[C@@H](O)[C@H]2O)[C@H](C)Cl)N(C)C1 [Clindamycin] + CC1(C)S[C@@H]2[C@H](NC(=O)Cc3ccccc3)C(=O)N2[C@H]1C(=O)O [PenicillinG] | 0.0383 | 0.0609 | -0.0587 | 0.0611 |
| N[C@@H]1CONC1=O [CycloserineD] + CN(C)c1cc(NC(=O)CNC(C)(C)C)c(O)c2c1C[C@H]1C[C@H]3[C@H](N(C)C)C(O)=C(C(N)=O)C(=O)[C@@]3(O)C(O)=C1C2=O [Tigecycline] | -0.0502 | 0.0966 | 0.0356 | -0.0514 |
| CC(=O)OC[C@H]1O[C@@H]([S-])[C@H](OC(C)=O)[C@@H](OC(C)=O)[C@@H]1OC(C)=O.CCP(CC)CC.[Au+] [Auranofin] + CC[C@H]1OC(=O)[C@H](C)[C@@H](O[C@H]2C[C@@](C)(OC)[C@@H](O)[C@H](C)O2)[C@H](C)[C@@H](O[C@@H]2O[C@H](C)C[C@H](N(C)C)[C@H]2O)[C@](C)(O)C[C@@H](C)C(=O)[C@H](C)[C@@H](O)[C@]1(C)O [Erythromycin] | 0.0564 | 0.0169 | 0.0459 | 0.0643 |
| CC(=O)OC[C@H]1O[C@@H]([S-])[C@H](OC(C)=O)[C@@H](OC(C)=O)[C@@H]1OC(C)=O.CCP(CC)CC.[Au+] [Auranofin] + O=C1CN(/N=C/c2ccc([N+](=O)[O-])o2)C(=O)N1 [Nitrofurantoin] | -0.066 | -0.0217 | -0.132 | -0.421 |
| COc1c(N2C[C@@H]3CCCN[C@@H]3C2)c(F)cc2c(=O)c(C(=O)O)cn(C3CC3)c12 [Moxifloxacin] + CN[C@H](CC(C)C)C(=O)N[C@H]1C(=O)N[C@@H](CC(N)=O)C(=O)N[C@H]2C(=O)N[C@H]3C(=O)N[C@H](C(=O)N[C@H](C(=O)O)c4cc(O)cc(O)c4-c4cc3ccc4O)[C@H](O[C@H]3C[C@](C)(N)[C@@H](O)[C@H](C)O3)c3ccc(c(Cl)c3)Oc3cc2cc(c3O[C@@H]2O[C@H](CO)[C@@H](O)[C@H](O)[C@H]2O[C@H]2C[C@](C)(NCc3ccc(-c4ccc(Cl)cc4)cc3)[C@@H](O)[C@H](C)O2)Oc2ccc(cc2Cl)[C@H]1O [Oritavancin] | 0.024 | -0.0425 | 0.0436 | -0.052 |
| CC(=O)OC[C@H]1O[C@@H]([S-])[C@H](OC(C)=O)[C@@H](OC(C)=O)[C@@H]1OC(C)=O.CCP(CC)CC.[Au+] [Auranofin] + CN[C@@H]1[C@H](O)[C@H](NC)[C@H]2O[C@@]3(O)C(=O)C[C@@H](C)O[C@H]3O[C@@H]2[C@H]1O [Spectinomycin] | 0.0604 | 0.0611 | 0.0532 | -0.162 |
| CC(=O)OC[C@H]1O[C@@H]([S-])[C@H](OC(C)=O)[C@@H](OC(C)=O)[C@@H]1OC(C)=O.CCP(CC)CC.[Au+] [Auranofin] + N[C@@H]1CONC1=O [CycloserineD] | 0.0806 | -0.0513 | 0.0247 | 0.106 |
| N[C@@H]1CONC1=O [CycloserineD] + C[C@@H](O)[C@H]1C(=O)N2C(C(=O)O)=C(SCCNC=N)C[C@H]12 [Imipenem] | 0.0545 | 0.0715 | -0.0358 | -0.235 |
| N[C@@H]1CONC1=O [CycloserineD] + Clc1ccc(COC(Cn2ccnc2)c2ccc(Cl)cc2Cl)c(Cl)c1 [Miconazole] | 0.0883 | 0.0763 | -0.0328 | -0.0729 |
| CC(=O)O[C@H]1C[C@@]2(C)[C@@H](C[C@@H](O)[C@H]3[C@@]4(C)CC[C@@H](O)[C@@H](C)[C@@H]4CC[C@@]32C)/C1=C(\CCC=C(C)C)C(=O)O [Fusidic acid] + CN(C)c1cc(NC(=O)CNC(C)(C)C)c(O)c2c1C[C@H]1C[C@H]3[C@H](N(C)C)C(O)=C(C(N)=O)C(=O)[C@@]3(O)C(O)=C1C2=O [Tigecycline] | 0.074 | -0.0504 | 0.0375 | -0.0713 |
| CCC[C@@H]1C[C@@H](C(=O)N[C@@H]([C@H]2O[C@H](SC)[C@H](O)[C@@H](O)[C@H]2O)[C@H](C)Cl)N(C)C1 [Clindamycin] + CC[C@H]1OC(=O)[C@H](C)C(=O)[C@H](C)[C@@H](O[C@@H]2O[C@H](C)C[C@H](N(C)C)[C@H]2O)[C@](C)(OC)C[C@@H](C)C(=O)[C@H](C)[C@H]2N(CCCCn3cnc(-c4cccnc4)c3)C(=O)O[C@]12C [Telithromycin] | 0.0609 | 0.0256 | -0.0812 | 0.106 |
| CCC[C@@H]1C[C@@H](C(=O)N[C@@H]([C@H]2O[C@H](SC)[C@H](O)[C@@H](O)[C@H]2O)[C@@H](C)O)N(C)C1 [Lincomycin] + CC[C@H]1OC(=O)[C@H](C)C(=O)[C@H](C)[C@@H](O[C@@H]2O[C@H](C)C[C@H](N(C)C)[C@H]2O)[C@](C)(OC)C[C@@H](C)C(=O)[C@H](C)[C@H]2N(CCCCn3cnc(-c4cccnc4)c3)C(=O)O[C@]12C [Telithromycin] | 0.091 | -0.053 | -0.0488 | -0.171 |
